In ChEMBL document CHEMBL1130939, “Alkyl side-chain derivatives of sordaricin as potent antifungal agents against yeast” (Bioorg Med Chem Lett, 1998):
In brackets after ≈: the same amount, converted by molar mass.

System: Saccharomyces cerevisiae
Assay: Antifungal activity against Saccharomyces cerevisiae (strain YPH98)
Format: functional, organism-based

Row | Structure (SMILES) | IC50 [ng/mL]
1 | CCCCOC[C@]12CC3C(C)CCC3[C@@]3(C=O)CC1C=C(C(C)C)[C@@]23C(=O)O (stereo partly specified) | 0.1 (≈ 0.257 nM)
2 | CCCOC[C@]12CC3C(C)CCC3[C@@]3(C=O)CC1C=C(C(C)C)[C@@]23C(=O)O (stereo partly specified) | 60 (≈ 160 nM)
3 | COC[C@]12CC3C(C)CCC3[C@@]3(C#N)CC1C=C(C(C)C)[C@@]23C(=O)O (stereo partly specified) | 1000 (≈ 2910 nM)
4 | COC1C(C)OC(OCC23CC4C(C)CCC4[C@@]4(C#N)C[C@@H]2C=C(C(C)C)[C@@]34C(=O)O)C(O)C1O (stereo partly specified) | 2000 (≈ 4080 nM)
5 | CCCCCOC[C@]12CC3C(C)CCC3[C@@]3(C=O)CC1C=C(C(C)C)[C@@]23C(=O)O (stereo partly specified) | 0.01 (≈ 0.0248 nM)
6 | CCCCCCCCCOC[C@]12CC3C(C)CCC3[C@@]3(C#N)CC1C=C(C(C)C)[C@@]23C(=O)O (stereo partly specified) | 1000 (≈ 2190 nM)
7 | CC(C)C1=CC2C[C@]3(C=O)C4CCC(C)C4C[C@]2(CO)[C@]13C(=O)O (stereo partly specified) [SORDARICIN] | > 250000
8 | CC(C)COC[C@]12CC3C(C)CCC3[C@@]3(C#N)CC1C=C(C(C)C)[C@@]23C(=O)O (stereo partly specified) | 30 (≈ 77.8 nM)
9 | CC(C)C1=CC2C[C@]3(C#N)C4CCC(C)C4C[C@]2(CO)[C@]13C(=O)O (stereo partly specified) | 20000 (≈ 60700 nM)
10 | CCOC[C@]12CC3C(C)CCC3[C@@]3(C#N)CC1C=C(C(C)C)[C@@]23C(=O)O (stereo partly specified) | 500 (≈ 1400 nM)
11 | CCCCOC[C@]12CC3C(C)CCC3[C@@]3(C#N)CC1C=C(C(C)C)[C@@]23C(=O)O (stereo partly specified) | 30 (≈ 77.8 nM)

Second part, the compound after the results:

Row | IC50 [ng/mL] | Structure (SMILES)
12 | 15 (≈ 36 nM) | CCCCCCOC[C@]12CC3C(C)CCC3[C@@]3(C=O)CC1C=C(C(C)C)[C@@]23C(=O)O (stereo partly specified)
13 | 0.3 (≈ 0.725 nM) | CCCCCCOC[C@]12CC3C(C)CCC3[C@@]3(C#N)CC1C=C(C(C)C)[C@@]23C(=O)O (stereo partly specified)
14 | 0.1 (≈ 0.257 nM) | CC(C)COC[C@]12CC3C(C)CCC3[C@@]3(C=O)CC1C=C(C(C)C)[C@@]23C(=O)O (stereo partly specified)
15 | 60 (≈ 166 nM) | CCOC[C@]12CC3C(C)CCC3[C@@]3(C=O)CC1C=C(C(C)C)[C@@]23C(=O)O (stereo partly specified)
16 | 90 (≈ 242 nM) | CCCOC[C@]12CC3C(C)CCC3[C@@]3(C#N)CC1C=C(C(C)C)[C@@]23C(=O)O (stereo partly specified)
17 | 100 (≈ 289 nM) | COC[C@]12CC3C(C)CCC3[C@@]3(C=O)CC1C=C(C(C)C)[C@@]23C(=O)O (stereo partly specified)
18 | 50000 (≈ 109000 nM) | CCCCCCCCCOC[C@]12CC3C(C)CCC3[C@@]3(C=O)CC1C=C(C(C)C)[C@@]23C(=O)O (stereo partly specified)
19 | 0.01 (≈ 0.0248 nM) | CC(C)CCOC[C@]12CC3C(C)CCC3[C@@]3(C=O)CC1C=C(C(C)C)[C@@]23C(=O)O (stereo partly specified)
20 | 300 (≈ 697 nM) | CCCCCCCOC[C@]12CC3C(C)CCC3[C@@]3(C=O)CC1C=C(C(C)C)[C@@]23C(=O)O (stereo partly specified)
21 | 100 (≈ 234 nM) | CCCCCCCOC[C@]12CC3C(C)CCC3[C@@]3(C#N)CC1C=C(C(C)C)[C@@]23C(=O)O (stereo partly specified)
22 | 10000 (≈ 20300 nM) | CO[C@H]1[C@@H](O)[C@H](O)[C@H](OC[C@@]23C[C@@H]4[C@H](C)CC[C@H]4[C@@]4(C=O)CC2C=C(C(C)C)[C@@]34C(=O)O)O[C@@H]1C [SORDARIN]
23 | 400 (≈ 900 nM) | CCCCCCCCOC[C@]12CC3C(C)CCC3[C@@]3(C=O)CC1C=C(C(C)C)[C@@]23C(=O)O (stereo partly specified)
24 | 0.01 (≈ 0.025 nM) | CC(C)CCOC[C@]12CC3C(C)CCC3[C@@]3(C#N)CC1C=C(C(C)C)[C@@]23C(=O)O (stereo partly specified)
25 | 200 (≈ 453 nM) | CCCCCCCCOC[C@]12CC3C(C)CCC3[C@@]3(C#N)CC1C=C(C(C)C)[C@@]23C(=O)O (stereo partly specified)
26 | 0.01 (≈ 0.025 nM) | CCCCCOC[C@]12CC3C(C)CCC3[C@@]3(C#N)CC1C=C(C(C)C)[C@@]23C(=O)O (stereo partly specified)
